From ChEMBL document CHEMBL3112458, “A biochemical screen for GroEL/GroES inhibitors” (Bioorg Med Chem Lett, 2014)

Legend:
E. coli GroEL/ES [1] = target: T1, E. coli GroEL/ES (Escherichia coli, UniProt P0A6F5); experiment: Inhibition of Escherichia coli GroEL/GroES expressed in Escherichia coli DH5alpha/BL21 (DE3) assessed as inhibition of denatured MDH refolding preincubated for 10 mins followed by ATP addition measured after 2 hrs by fluorescence based assay
[2] = Inhibition of pig heart MDH using […] as substrate; parameters: species or system Sus scrofa
E. coli GroEL/ES [3] = target: T1, E. coli GroEL/ES; experiment: Inhibition of Escherichia coli GroEL/GroES-ATPase activity expressed in Escherichia coli DH5alpha/BL21 (DE3) assessed as inhibition of denatured MDH refolding preincubated for 10 mins followed by ATP addition measured after 2 hrs by fluorescence based assay

T1 sequence (P0A6F5 whole entry, looked up): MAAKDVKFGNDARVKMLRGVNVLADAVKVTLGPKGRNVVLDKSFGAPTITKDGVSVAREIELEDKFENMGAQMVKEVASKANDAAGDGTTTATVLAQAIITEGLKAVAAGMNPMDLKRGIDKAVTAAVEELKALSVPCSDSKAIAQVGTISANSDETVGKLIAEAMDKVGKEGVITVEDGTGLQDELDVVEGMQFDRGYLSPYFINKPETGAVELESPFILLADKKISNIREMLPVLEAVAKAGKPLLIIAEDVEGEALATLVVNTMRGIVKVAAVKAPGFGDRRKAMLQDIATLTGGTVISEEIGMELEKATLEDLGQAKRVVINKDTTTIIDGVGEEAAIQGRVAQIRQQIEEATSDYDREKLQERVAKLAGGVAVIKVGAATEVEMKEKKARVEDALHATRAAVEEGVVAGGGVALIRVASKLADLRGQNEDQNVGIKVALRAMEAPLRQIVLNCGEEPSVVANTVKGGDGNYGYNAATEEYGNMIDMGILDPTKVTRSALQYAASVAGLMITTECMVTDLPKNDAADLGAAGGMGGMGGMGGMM

O=C1NC(=S)N(c2ccc(F)cc2)C(=O)/C1=C/c1ccco1
IC50 (E. coli GroEL/ES [1]): 1.2 µM
IC50 [2]: 20 µM
IC50 (E. coli GroEL/ES [3]): 25 µM

O=C(NCCO)Nc1ccc2nc(-c3ccco3)c(-c3ccco3)nc2c1
IC50 (E. coli GroEL/ES [1]): 23 µM
IC50 [2]: > 62.5 µM
IC50 (E. coli GroEL/ES [3]): > 250 µM

O=C(Nc1ccc2nc(-c3ccco3)c(-c3ccco3)nc2c1)N1CCCC1
IC50 (E. coli GroEL/ES [1]): 14 µM
IC50 [2]: > 62.5 µM
IC50 (E. coli GroEL/ES [3]): > 250 µM

O=C(Nc1ccc(Sc2nc3ccccc3s2)c(Cl)c1)c1cc(Br)cc(Br)c1O
IC50 (E. coli GroEL/ES [1]): 1.7 µM
IC50 [2]: 5.5 µM
IC50 (E. coli GroEL/ES [3]): 13 µM

CNC(=O)Nc1ccc2nc(-c3ccco3)c(-c3ccco3)nc2c1
IC50 (E. coli GroEL/ES [1]): 5.4 µM
IC50 [2]: > 62.5 µM
IC50 (E. coli GroEL/ES [3]): > 250 µM

Oc1ccc(NCn2nnc3ccccc32)cc1
IC50 (E. coli GroEL/ES [1]): 55 µM
IC50 [2]: > 62.5 µM
IC50 (E. coli GroEL/ES [3]): 130 µM

Cc1ccc(C)n1-c1ccc(O)c(C(=O)O)c1
IC50 (E. coli GroEL/ES [1]): 0.62 µM
IC50 [2]: > 62.5 µM
IC50 (E. coli GroEL/ES [3]): > 250 µM

O=c1/c(=C/c2ccc(O)c(O)c2)sc2nc3ccccc3n12
IC50 (E. coli GroEL/ES [1]): 1.3 µM
IC50 [2]: > 62.5 µM
IC50 (E. coli GroEL/ES [3]): 9.8 µM

Nc1ccc(Nc2nc(-c3ccc(O)c(O)c3)cs2)cc1
IC50 (E. coli GroEL/ES [1]): 5.9 µM
IC50 [2]: > 62.5 µM
IC50 (E. coli GroEL/ES [3]): 23 µM

Cc1ccc(S(=O)(=O)Nc2ccc(-c3nc4ccc(NS(=O)(=O)c5ccc(C)cc5)cc4[nH]3)cc2)cc1
IC50 (E. coli GroEL/ES [1]): 0.11 µM
IC50 [2]: > 62.5 µM
IC50 (E. coli GroEL/ES [3]): 0.06 µM

O=C(O)c1ccc(-c2nc(-c3ccc(-c4ccc(-c5nc(-c6ccc(C(=O)O)cc6)[nH]c5-c5ccccc5)cc4)cc3)c(-c3ccccc3)[nH]2)cc1
IC50 (E. coli GroEL/ES [1]): 0.44 µM
IC50 [2]: 57 µM
IC50 (E. coli GroEL/ES [3]): 25 µM

O=C1NC(=S)N(Cc2ccco2)C(=O)/C1=C\c1ccc(-c2ccc([N+](=O)[O-])cc2)o1
IC50 (E. coli GroEL/ES [1]): 0.7 µM
IC50 [2]: 19 µM
IC50 (E. coli GroEL/ES [3]): 150 µM

O=C1/C(=C/c2ccc(O)c(O)c2)SC(=S)N1c1ccc(O)cc1
IC50 (E. coli GroEL/ES [1]): 0.99 µM
IC50 [2]: > 62.5 µM
IC50 (E. coli GroEL/ES [3]): 3.3 µM

O=C(/C=C/c1cccc([N+](=O)[O-])c1)c1ccc(NC(=O)c2ccco2)cc1
IC50 (E. coli GroEL/ES [1]): 1.8 µM
IC50 [2]: > 62.5 µM
IC50 (E. coli GroEL/ES [3]): > 250 µM

O=C(/C=C/c1ccc([N+](=O)[O-])cc1)c1ccc(O)c(O)c1
IC50 (E. coli GroEL/ES [1]): 2.4 µM
IC50 [2]: > 62.5 µM
IC50 (E. coli GroEL/ES [3]): 71 µM

O=C(O)c1cccc2c1NC(c1cccc(Br)c1)C1CC=CC21 (stereo not given)
IC50 (E. coli GroEL/ES [1]): 2.7 µM
IC50 [2]: 50 µM
IC50 (E. coli GroEL/ES [3]): 44 µM

O=C(O)C1Nc2ccc(Cl)cc2C2C=CCC12 (stereo not given)
IC50 (E. coli GroEL/ES [1]): 2.7 µM
IC50 [2]: > 62.5 µM
IC50 (E. coli GroEL/ES [3]): 68 µM

CN(C)c1ccc(/C=C2/C(=O)NC(=S)N(Cc3ccco3)C2=O)cc1
IC50 (E. coli GroEL/ES [1]): 5.9 µM
IC50 [2]: > 62.5 µM
IC50 (E. coli GroEL/ES [3]): 169 µM

Cc1ccc(/C=C2/SC(=S)N(c3ccc(C(=O)O)c(O)c3)C2=O)o1
IC50 (E. coli GroEL/ES [1]): 6.1 µM
IC50 [2]: > 62.5 µM
IC50 (E. coli GroEL/ES [3]): 48 µM

Cn1c(=O)c(C(=O)Nc2ccncc2)c(O)c2ccccc21
IC50 (E. coli GroEL/ES [1]): 7.3 µM
IC50 [2]: > 62.5 µM
IC50 (E. coli GroEL/ES [3]): > 250 µM

COC(=O)c1ccc(-c2ccc(/C=C3/SC(=S)NC3=O)o2)cc1
IC50 (E. coli GroEL/ES [1]): 8.4 µM
IC50 [2]: > 62.5 µM
IC50 (E. coli GroEL/ES [3]): 131 µM

O=c1c([N+](=O)[O-])c(Cl)c2ccccc2n1Cc1ccccc1
IC50 (E. coli GroEL/ES [1]): 8.8 µM
IC50 [2]: > 62.5 µM
IC50 (E. coli GroEL/ES [3]): > 250 µM

O=C(O)c1cccc2c1NC(c1ccccc1F)C1CC=CC21 (stereo not given)
IC50 (E. coli GroEL/ES [1]): 9.1 µM
IC50 [2]: > 62.5 µM
IC50 (E. coli GroEL/ES [3]): 95 µM

O=c1[nH]nc2cc(O)c3ccccc3n12
IC50 (E. coli GroEL/ES [1]): 11 µM
IC50 [2]: > 62.5 µM
IC50 (E. coli GroEL/ES [3]): > 250 µM

O=C(/C=C/c1ccco1)c1ccc(NC(=O)c2cccs2)cc1
IC50 (E. coli GroEL/ES [1]): 17 µM
IC50 [2]: > 62.5 µM
IC50 (E. coli GroEL/ES [3]): 157 µM

CCOc1ccc(N2C(=O)NC(=O)/C(=C/c3ccc(O)c(O)c3)C2=O)cc1
IC50 (E. coli GroEL/ES [1]): 24 µM
IC50 [2]: > 62.5 µM
IC50 (E. coli GroEL/ES [3]): 217 µM

COc1cccc(/C=C2/SC(=S)N(CCC(=O)Nc3ccc(O)cc3)C2=O)c1
IC50 (E. coli GroEL/ES [1]): 33 µM
IC50 [2]: > 62.5 µM
IC50 (E. coli GroEL/ES [3]): > 250 µM

CNC(=O)Oc1c(Br)cc2sc(=O)oc2c1Br
IC50 (E. coli GroEL/ES [1]): 35 µM
IC50 [2]: > 62.5 µM
IC50 (E. coli GroEL/ES [3]): 236 µM

O=C(Nc1cc([N+](=O)[O-])ccc1O)c1ccc2c(c1)C(=O)N(Cc1ccccc1)C2=O
IC50 (E. coli GroEL/ES [1]): 52 µM
IC50 [2]: > 62.5 µM
IC50 (E. coli GroEL/ES [3]): > 250 µM

COc1ccc(C(=O)N/N=C/c2ccc(O)c3ncccc23)cc1
IC50 (E. coli GroEL/ES [1]): 70 µM
IC50 [2]: > 62.5 µM
IC50 (E. coli GroEL/ES [3]): > 250 µM

O=C(CC1Nc2cccc3cccc(c23)NC1=O)Nc1cccc([N+](=O)[O-])c1 (stereo not given)
IC50 (E. coli GroEL/ES [1]): 97 µM
IC50 [2]: > 62.5 µM
IC50 (E. coli GroEL/ES [3]): 52 µM

CC(=O)c1cc2c(cc1NC(=O)c1ccccc1Br)OCCO2
IC50 (E. coli GroEL/ES [1]): > 100 µM
IC50 [2]: > 62.5 µM
IC50 (E. coli GroEL/ES [3]): > 250 µM

COc1cc(/C=C2/C(=N)N3N=C(CC(C)C)SC3=NC2=O)ccc1OC(=O)c1ccc(F)cc1
IC50 (E. coli GroEL/ES [1]): > 100 µM
IC50 [2]: > 62.5 µM
IC50 (E. coli GroEL/ES [3]): > 250 µM

Nc1nnc(SCC(=O)c2ccc(-c3ccccc3)cc2)s1
IC50 (E. coli GroEL/ES [1]): > 100 µM
IC50 [2]: > 62.5 µM
IC50 (E. coli GroEL/ES [3]): > 250 µM

Cc1ccc(-c2ccc(NC(=O)/C=C/c3ccco3)cc2)o1
IC50 (E. coli GroEL/ES [1]): > 100 µM
IC50 [2]: > 62.5 µM
IC50 (E. coli GroEL/ES [3]): > 250 µM
